In ChEMBL document CHEMBL1909046, “DrugMatrix in vitro pharmacology data” one finds IC50 and Ki data, which are given here for four molecules.

For one series, the target named is Carbonic anhydrase 2 (Homo sapiens, UniProt P00918). The series is described as follows: DRUGMATRIX: Carbonic Anhydrase II enzyme inhibition (substrate: 4-Nitrophenyl acetate (4-NPA)). It counts as tissue-based, Erythrocyte. As to conditions: erythrocyte; Not Active = under 50% inhibition at 10 µM.
In series [1] the target is Tyrosine-protein kinase Fyn (Homo sapiens, UniProt P06241). The series is described as follows: biochemical. As to conditions: insect cells. The class given is cell-based, Insect cells.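 Further: enzymatic inhibition of Fyn kinase activity measured with Poly(Glu:Tyr) as the phosphorylation substrate; in other assays of this panel Not Active means under 50% inhibition at 10 µM.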
Chain of Tyrosine-protein kinase Fyn (P06241 whole entry): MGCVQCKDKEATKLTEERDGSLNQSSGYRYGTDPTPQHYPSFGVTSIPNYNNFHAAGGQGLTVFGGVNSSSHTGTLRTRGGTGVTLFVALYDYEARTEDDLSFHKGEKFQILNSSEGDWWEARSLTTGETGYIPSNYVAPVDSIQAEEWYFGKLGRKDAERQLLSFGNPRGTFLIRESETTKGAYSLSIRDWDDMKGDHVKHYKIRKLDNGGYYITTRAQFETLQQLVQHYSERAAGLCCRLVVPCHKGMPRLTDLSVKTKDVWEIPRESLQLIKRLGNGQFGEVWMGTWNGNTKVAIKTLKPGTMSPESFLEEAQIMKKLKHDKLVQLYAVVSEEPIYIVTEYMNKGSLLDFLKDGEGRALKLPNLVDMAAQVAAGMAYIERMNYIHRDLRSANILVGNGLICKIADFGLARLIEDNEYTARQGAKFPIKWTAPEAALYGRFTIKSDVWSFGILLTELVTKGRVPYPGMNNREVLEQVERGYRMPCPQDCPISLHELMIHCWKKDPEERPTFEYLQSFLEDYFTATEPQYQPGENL
Series [2] in a line: DRUGMATRIX: Sigma2 radioligand binding (ligand: [3H] Ifenprodil). The class given is cell membranes, Rattus norvegicus, Wistar, Brain, Membrane. As to conditions: Not Active = under 50% inhibition at 10 µM.
The next series concerns the target Cannabinoid receptor 1 (Homo sapiens, UniProt P21554). The class given is cell membranes, Membrane. As to conditions: chem-1. Further: in other assays of this panel Not Active means under 50% inhibition at 10 µM.
The target of series [3] is T1, Alpha-1D adrenergic receptor (Homo sapiens, UniProt P25100). Further: in other assays of this panel Not Active means under 50% inhibition at 10 µM.
T1 sequence (P25100 whole entry): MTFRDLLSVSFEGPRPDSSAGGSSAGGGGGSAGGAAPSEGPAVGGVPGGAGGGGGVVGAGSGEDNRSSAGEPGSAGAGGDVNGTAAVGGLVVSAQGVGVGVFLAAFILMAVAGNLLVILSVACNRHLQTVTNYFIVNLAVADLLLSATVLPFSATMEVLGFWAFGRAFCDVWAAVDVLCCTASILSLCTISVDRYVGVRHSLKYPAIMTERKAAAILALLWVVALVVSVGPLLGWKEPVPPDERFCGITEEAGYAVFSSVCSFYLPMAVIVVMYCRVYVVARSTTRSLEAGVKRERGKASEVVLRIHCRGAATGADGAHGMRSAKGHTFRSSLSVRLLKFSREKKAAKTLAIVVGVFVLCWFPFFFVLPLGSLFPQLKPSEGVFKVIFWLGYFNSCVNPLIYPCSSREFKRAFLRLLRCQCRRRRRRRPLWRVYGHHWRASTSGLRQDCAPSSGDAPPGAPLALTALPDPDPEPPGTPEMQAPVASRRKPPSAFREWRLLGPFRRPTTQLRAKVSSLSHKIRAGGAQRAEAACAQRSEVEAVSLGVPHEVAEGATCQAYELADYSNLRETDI
It counts as cell membranes, HEK293, Membrane.

In the next series the target is Acetylcholinesterase (Homo sapiens, UniProt P22303). The series is described as follows: DRUGMATRIX: Acetylcholinesterase enzyme inhibition (substrate: acetylthiocholine). The class given is cell-based, HEK293. The following applies: hek293; Not Active = under 50% inhibition at 10 µM.
Chain of Acetylcholinesterase (P22303 whole entry): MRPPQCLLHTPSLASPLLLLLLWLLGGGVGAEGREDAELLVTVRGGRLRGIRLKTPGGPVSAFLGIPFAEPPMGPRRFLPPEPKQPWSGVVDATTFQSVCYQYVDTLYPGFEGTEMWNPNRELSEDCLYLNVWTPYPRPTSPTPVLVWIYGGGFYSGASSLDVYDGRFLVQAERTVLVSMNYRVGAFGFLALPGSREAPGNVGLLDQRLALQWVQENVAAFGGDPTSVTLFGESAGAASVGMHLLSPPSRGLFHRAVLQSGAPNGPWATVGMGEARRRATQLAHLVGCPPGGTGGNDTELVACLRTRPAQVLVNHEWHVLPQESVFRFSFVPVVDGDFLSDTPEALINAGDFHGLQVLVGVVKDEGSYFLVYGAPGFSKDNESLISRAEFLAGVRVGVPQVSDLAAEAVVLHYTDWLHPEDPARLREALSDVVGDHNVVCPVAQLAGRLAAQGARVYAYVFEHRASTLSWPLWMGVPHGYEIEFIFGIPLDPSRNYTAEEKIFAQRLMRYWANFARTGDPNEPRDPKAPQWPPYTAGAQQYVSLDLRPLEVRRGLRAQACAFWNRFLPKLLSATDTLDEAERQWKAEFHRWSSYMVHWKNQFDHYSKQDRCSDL
Series [4] is described as follows: DRUGMATRIX: GABAA, Muscimol, Central radioligand binding (ligand: [3H] Muscimol). The class given is cell membranes, Rattus norvegicus, Wistar, Brain, Membrane. As to conditions: Not Active = under 50% inhibition at 10 µM.
The target in another series is T2, Substance-K receptor (Homo sapiens, UniProt P21452). Further: in other assays of this panel Not Active means under 50% inhibition at 10 µM.
T2 sequence (P21452 whole entry): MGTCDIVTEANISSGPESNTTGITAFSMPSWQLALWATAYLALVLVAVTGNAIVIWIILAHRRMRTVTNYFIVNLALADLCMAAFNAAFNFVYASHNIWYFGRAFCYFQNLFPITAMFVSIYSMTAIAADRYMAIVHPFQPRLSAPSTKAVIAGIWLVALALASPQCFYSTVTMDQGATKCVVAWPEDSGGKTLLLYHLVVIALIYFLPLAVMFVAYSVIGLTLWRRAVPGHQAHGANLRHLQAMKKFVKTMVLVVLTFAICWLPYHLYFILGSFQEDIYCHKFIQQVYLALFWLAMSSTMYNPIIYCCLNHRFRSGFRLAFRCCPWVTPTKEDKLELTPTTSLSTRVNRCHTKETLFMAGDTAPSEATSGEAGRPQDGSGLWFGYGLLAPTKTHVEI
The class given is cell membranes, CHO, Membrane. The following applies: cho.

Series [5] concerns the target Mitogen-activated protein kinase 14 (Homo sapiens, UniProt Q16539). Details: species or system Escherichia coli.
Another series has as its target T3, Cytochrome P450 2A6 (Homo sapiens, UniProt P11509). Further: in other assays of this panel Not Active means under 50% inhibition at 10 µM.
T3 sequence (P11509 whole entry): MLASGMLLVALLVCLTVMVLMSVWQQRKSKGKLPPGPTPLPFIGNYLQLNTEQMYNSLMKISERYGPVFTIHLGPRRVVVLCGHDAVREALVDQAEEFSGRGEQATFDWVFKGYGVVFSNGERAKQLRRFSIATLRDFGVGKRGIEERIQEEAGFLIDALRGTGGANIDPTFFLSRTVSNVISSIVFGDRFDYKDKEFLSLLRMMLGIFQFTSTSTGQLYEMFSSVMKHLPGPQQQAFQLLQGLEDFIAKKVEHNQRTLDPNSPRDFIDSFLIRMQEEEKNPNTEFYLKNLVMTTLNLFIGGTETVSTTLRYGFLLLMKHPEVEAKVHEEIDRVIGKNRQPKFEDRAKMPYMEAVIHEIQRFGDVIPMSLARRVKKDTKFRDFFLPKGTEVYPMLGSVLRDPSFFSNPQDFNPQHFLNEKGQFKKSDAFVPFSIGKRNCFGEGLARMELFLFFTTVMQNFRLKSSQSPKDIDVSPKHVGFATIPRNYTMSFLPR
The following applies: bti-tn-5b1-4.

Another series addresses T4, Leukotriene C4 synthase (Cavia porcellus, UniProt A6XA80).
T4 sequence (A6XA80 whole entry): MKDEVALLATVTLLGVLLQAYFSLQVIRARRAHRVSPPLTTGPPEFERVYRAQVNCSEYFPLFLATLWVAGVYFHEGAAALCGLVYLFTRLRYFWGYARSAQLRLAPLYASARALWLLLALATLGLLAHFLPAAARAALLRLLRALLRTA
In words: biochemical. It counts as tissue-based, Lung.

The target in another series is Cytochrome P450 2C9 (Homo sapiens, UniProt P11712). The following applies: bti-tn-5b1-4. Further: in other assays of this panel Not Active means under 50% inhibition at 10 µM.
Chain of Cytochrome P450 2C9 (P11712 whole entry): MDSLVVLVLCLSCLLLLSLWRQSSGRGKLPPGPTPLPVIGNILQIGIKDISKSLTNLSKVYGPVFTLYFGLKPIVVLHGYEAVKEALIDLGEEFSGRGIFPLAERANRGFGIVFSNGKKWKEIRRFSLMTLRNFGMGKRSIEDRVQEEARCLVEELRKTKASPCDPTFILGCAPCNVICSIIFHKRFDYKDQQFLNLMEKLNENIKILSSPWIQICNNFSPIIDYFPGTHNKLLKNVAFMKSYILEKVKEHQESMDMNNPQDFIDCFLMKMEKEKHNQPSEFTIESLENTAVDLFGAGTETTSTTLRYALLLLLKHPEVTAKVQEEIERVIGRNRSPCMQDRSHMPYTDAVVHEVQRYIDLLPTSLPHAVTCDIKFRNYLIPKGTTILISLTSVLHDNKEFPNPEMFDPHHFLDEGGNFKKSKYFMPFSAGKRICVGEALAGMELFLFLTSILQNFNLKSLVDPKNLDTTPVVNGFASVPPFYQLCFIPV
A further series addresses T5, Adenosine receptor A3 (Homo sapiens, UniProt P0DMS8).
T5 sequence (P0DMS8 whole entry): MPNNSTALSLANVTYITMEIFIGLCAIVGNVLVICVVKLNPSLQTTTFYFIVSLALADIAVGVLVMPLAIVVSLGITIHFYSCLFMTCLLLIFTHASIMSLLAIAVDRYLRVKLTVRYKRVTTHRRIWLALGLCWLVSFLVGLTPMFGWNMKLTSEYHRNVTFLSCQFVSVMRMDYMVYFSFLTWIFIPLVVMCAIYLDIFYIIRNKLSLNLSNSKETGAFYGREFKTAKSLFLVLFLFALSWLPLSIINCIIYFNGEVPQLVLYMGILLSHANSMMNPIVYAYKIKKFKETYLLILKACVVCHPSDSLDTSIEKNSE
The class given is cell membranes, CHO-K1, Membrane. As to conditions: cho-k1.

Chain of Mitogen-activated protein kinase 14 (Q16539 whole entry): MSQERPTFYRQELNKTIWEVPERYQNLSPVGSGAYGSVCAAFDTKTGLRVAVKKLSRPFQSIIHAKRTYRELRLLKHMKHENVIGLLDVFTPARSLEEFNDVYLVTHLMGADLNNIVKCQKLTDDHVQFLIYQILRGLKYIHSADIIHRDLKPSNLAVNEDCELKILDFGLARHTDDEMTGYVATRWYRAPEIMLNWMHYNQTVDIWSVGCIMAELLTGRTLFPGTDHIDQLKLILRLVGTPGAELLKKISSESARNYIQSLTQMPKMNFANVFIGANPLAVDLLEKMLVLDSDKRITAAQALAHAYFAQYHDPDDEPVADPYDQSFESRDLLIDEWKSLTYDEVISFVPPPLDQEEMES
Chain of Cannabinoid receptor 1 (P21554 whole entry): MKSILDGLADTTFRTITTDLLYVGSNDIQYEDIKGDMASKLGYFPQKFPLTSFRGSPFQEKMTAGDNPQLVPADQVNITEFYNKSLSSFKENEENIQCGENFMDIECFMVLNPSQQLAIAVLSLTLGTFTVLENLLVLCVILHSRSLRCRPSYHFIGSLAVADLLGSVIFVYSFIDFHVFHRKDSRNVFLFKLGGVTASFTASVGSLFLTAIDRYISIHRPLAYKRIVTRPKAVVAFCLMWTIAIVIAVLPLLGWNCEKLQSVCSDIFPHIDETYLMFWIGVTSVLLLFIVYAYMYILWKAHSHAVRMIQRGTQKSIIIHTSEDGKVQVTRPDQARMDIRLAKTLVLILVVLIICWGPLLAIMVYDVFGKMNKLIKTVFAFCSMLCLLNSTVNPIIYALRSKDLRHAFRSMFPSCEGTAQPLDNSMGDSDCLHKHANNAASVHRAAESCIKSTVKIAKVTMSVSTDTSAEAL

Consider `COCc1c(C(C)C)nc(C(C)C)c(/C=C/[C@@H](O)C[C@@H](O)CC(=O)O)c1-c1ccc(F)cc1` [CERIVASTATIN], for which the IC50 result (against Carbonic anhydrase 2; in [1]; in [2]; against Cannabinoid receptor 1; in series [3] (hek293); at Acetylcholinesterase) was “Not Active” each time. Also, the IC50 result (in [4]; against Substance-K receptor; in [5]; against Cytochrome P450 2A6; on Leukotriene C4 synthase; against Cytochrome P450 2C9) was “Not Active” each time. Besides, the IC50 (commonly the point on the concentration scale where inhibition reaches its midpoint) against Adenosine receptor A3 was “Not Active”. Moreover, the Ki entry (in series [2]; in [4]; at Cytochrome P450 2A6; at Cytochrome P450 2C9) was “Not Active” throughout.
For the molecule `CC(=O)O[C@]1(C(C)=O)CC[C@H]2[C@@H]3C=C(Cl)C4=CC(=O)CC[C@]4(C)[C@H]3CC[C@@]21C` [CHLORMADINONE ACETATE], the IC50 result (against Carbonic anhydrase 2; in series [1]; in series [2]; against Cannabinoid receptor 1; in series [3] (hek293); against Acetylcholinesterase) was “Not Active” each time. Also, the IC50 result (in series [4]; against Substance-K receptor; in series [5]; against Cytochrome P450 2A6; at Leukotriene C4 synthase; against Cytochrome P450 2C9) was “Not Active” in each case. The IC50 result against Adenosine receptor A3 is given as “Not Active”. In addition, the Ki result (in series [2]; in series [4]; at Cytochrome P450 2A6; on Cytochrome P450 2C9) was “Not Active” each time.
As for `CN(C)CCCC1(c2ccc(F)cc2)OCc2cc(C#N)ccc21` (centres undefined) [CITALOPRAM], the IC50 result on Carbonic anhydrase 2 is “Not Active”; in series [1], “Not Active”; in [2], “Not Active”; against Cannabinoid receptor 1, “Not Active”; in series [3] (read-out: IC50) it was 3.29 µM; against Acetylcholinesterase it was “Not Active”. For the same molecule, the IC50 entry (in series [4]; at Substance-K receptor; in series [5]; on Cytochrome P450 2A6; at Leukotriene C4 synthase; against Cytochrome P450 2C9) was “Not Active” throughout. The IC50 entry against Adenosine receptor A3 was “Not Active”. Besides, the Ki (as a rule, a dissociation constant, usually derived from enzyme kinetics or from competition with a known ligand) in series [2] is “Not Active”; in series [3] (read-out: Ki) it was 1.62 µM; in series [4] it was “Not Active”; on Cytochrome P450 2A6, “Not Active”; at Cytochrome P450 2C9 it was “Not Active”.
For `COC(=O)[C@H](c1ccccc1Cl)N1CCc2sccc2C1` [CLOPIDOGREL], the IC50 entry (on Carbonic anhydrase 2; in [1]; in [2]; against Cannabinoid receptor 1; in series [3] (hek293); against Acetylcholinesterase) was “Not Active” in each case. The IC50 entry (in [4]; at Substance-K receptor; in series [5]; against Cytochrome P450 2A6; against Leukotriene C4 synthase; against Cytochrome P450 2C9) was “Not Active” each time. Also, at Adenosine receptor A3, the IC50 result is on record as “Not Active”. Also, the Ki entry (in [2]; in series [4]; at Cytochrome P450 2A6; at Cytochrome P450 2C9) was “Not Active” throughout.
